Reference: US20150273055A1, “METHODS AND COMPOSITIONS FOR EXPANDING HEMATOPOIETIC STEM AND PROGENITOR CELLS” (UNIVERSITY OF ROCHESTER, priority 2012, published 2015)
“Also recorded” adds a separate entry of the source.

Legend:
[1] = test system: BM vasculature; test: Histomorphometric analysis of hindlimb bone marrow vasculature after PTH treatment; assay type: in vivo, mice; conditions: PTH treatment vs vehicle
Text: Osteoblasts (OBs) and the bone marrow (BM) vasculature constitute hematopoietic stem and progenitor cell (HSPC) niches. OB-activation by Parathyroid Hormone (PTH) expands HSPCs through the BM microenvironment. Activation of osteoblasts through systemic PTH treatment or expression of a constitutively active PTH1 receptor (PTH1R) increases trabecular bone and expands HSPCs in the bone marrow. To test if the vasculature is modulated by PTH, it was first assessed whether PTH expands BM endothelial structures. In a murine model of HSPC-expanding PTH treatment, PTH increased microvessels and vascular area in hindlimb histology (FIG. 3A, 3B and 3E-3H). […] To determine if PTH expands BM vasculature by increasing proangiogenic signals, VEGF-A was analyzed in PTH-stimulated BM. […]
(§1) Methods of administration and analysis of the effects of PTH either alone or in combination are described above. To determine whether bone anabolic, HSPC-expanding regimens of PTH stimulation alter the vascular niche, mice were first treated intensively with PTH and the hindlimb BM vasculature was analyzed. PTH increased BM vascular structures per hindlimb section (femur and tibia) by histomorphometric analysis (FIG. 9A) as well as the area occupied by vasculature measured within the tibial metaphysis (FIG. 9B). […]

[2] = test system: mouse calvarial MC3T3 cells; test: In vitro PTH stimulation of MC3T3 cells during osteoblastic differentiation; assay type: cell-based
Text: Osteoblasts (OBs) and the bone marrow (BM) vasculature constitute hematopoietic stem and progenitor cell (HSPC) niches. OB-activation by Parathyroid Hormone (PTH) expands HSPCs through the BM microenvironment. Activation of osteoblasts through systemic PTH treatment or expression of a constitutively active PTH1 receptor (PTH1R) increases trabecular bone and expands HSPCs in the bone marrow. To test if the vasculature is modulated by PTH, it was first assessed whether PTH expands BM endothelial structures. In a murine model of HSPC-expanding PTH treatment, PTH increased microvessels and vascular area in hindlimb histology (FIG. 3A, 3B and 3E-3H). […] To determine if PTH expands BM vasculature by increasing proangiogenic signals, VEGF-A was analyzed in PTH-stimulated BM. […] To establish whether PTH directly stimulates osteoblastic Vegfa expression, mouse calvarial MC3T3 cells were treated with PTH at various stages of osteoblastic maturation. […] The magnitude of induction increased throughout osteoblastic differentiation. […]
To determine if PTH increases osteoblast-derived VEGF-A, in vitro PTH stimulation experiments were performed on two osteoblastic cell lines. […] Again, osteoblastic differentiation was monitored through analysis of Collagen1, Osteocalcin and Pth1r expression as well as by the formation of mineralizing bone nodules.

[3] = test system: CD31+ Sca1+ BM endothelial cells; test: Flow cytometry of CD31+ Sca1+ bone marrow endothelial cells; assay type: in vivo, mice; conditions: for PTH-mediated expansion of BM endothelial cells: bevacizumab 0.7 mg/kg once per day with PTH thrice per day 10 days, vs PTH alone
Procedure: (§2) All drugs were administered by intraperitoneal injection. Following 10 days of treatment, mice were sacrificed (on the morning of the eleventh day) and samples were harvested. Hindlimb bone marrow samples were used to generate the data for FIG. 8A as well as for the competitive transplantation of whole bone marrow. Hindlimb bone marrow was harvested by crushing the right hindlimb of each mouse individually using a sterile mortar and pestle in 2.5 mL phosphate buffered saline, filtered through a 40 um cell strainer and placed on ice. For flow cytometric analysis, fresh, filtered bone marrow cells were subjected to a red blood cell lysis procedure using ammonium chloride and then prepared for flow cytometry by staining with a panel of fluorescently-conjugated antibodies recognizing markers of hematopoietic stem and progenitor cells. Samples were then run on an LSR-II 12 color flow cytometer and data was analyzed using TreeStar's FlowJo software. Statistics between treatment groups were analyzed by student's T test.
(§3) Methods of administration and analysis of the effects of PTH either alone or in combination are described above. To determine whether bone anabolic, HSPC-expanding regimens of PTH stimulation alter the vascular niche, mice were first treated intensively with PTH and the hindlimb BM vasculature was analyzed. PTH increased BM vascular structures per hindlimb section (femur and tibia) by histomorphometric analysis (FIG. 9A) as well as the area occupied by vasculature measured within the tibial metaphysis (FIG. 9B). To clarify whether intensive PTH treatment was vasodilatory to existing vessels or increasing de novo endothelial structures, BMCs of PTH-treated mice were analyzed phenotypically by flow cytometry (FIG. 9D). Intensive PTH treatment expanded populations of BM endothelial cells defined by this immunophenotyic signature (FIG. 9E). […] This expansion of small BM blood vessels was also observed in close association with both trabecular and cortical bone when CD31 immunostaining was examined in the BM (FIG. 9E). The PTH-induced increase in endothelial structures was accompanied by an increase in perivascular α smooth muscle actin (αSMA+) (FIG. 9F), indicating a concomitant increase in perivascular, HSPC supportive stromal cells.

[4] = test system: osteolineage cells; test: Angiogenic signals (FGF2, Vegfa) in marrow and osteolineage cells of treated mice; assay type: in vivo
Procedure: FGF2 is another angiogenic signal within the BM. In contrast to the effects of VEGF-A on endothelial permeability and migration, FGF2 enforces vascular stability. To determine whether osteoblastic activation by PTH can remodel the BM vasculature through the action of multiple angiogenic signals or VEGF-A alone, FGF2 changes in the marrow of PTH-stimulated mice were analyzed. Indeed, increased endosteal-associated FGF2 in hindlimb BM of mice treated with TID PTH, with a localization pattern similar to that of VEGF was observed. Moreover, FGF2 expression levels were increased within osteolineage cells isolated from TID PTH mice (FIG. 10E).
Immunoreactive VEGF-A and FGF2 were both very high along endosteal surfaces of the hindlimb BM cavity following PTH as compared to control treatment.

[5] = test system: primary mouse osteoblastic cells; test: PTH stimulation of primary mouse osteoblastic cells from bone marrow stroma; assay type: cell-based
Procedure: (§4) To determine if PTH increases osteoblast-derived VEGF-A, in vitro PTH stimulation experiments were performed on two osteoblastic cell lines. […] Osteoblastic differentiation was observed through maturational changes in gene expression of Collagen1, Osteocalcin and Pth1r and the ability to form mineralized bone nodules. […] To test whether PTH could directly induce VEGF-A in primary mouse osteoblastic cells as it could in osteoblastic cell lines, mouse bone marrow stroma was harvested and cultured in osteoblastic maturation media prior to stimulation with PTH at specific points throughout differentiation. Again, osteoblastic differentiation was monitored through analysis of Collagen1, Osteocalcin and Pth1r expression as well as by the formation of mineralizing bone nodules.

[6] = test system: OBs; test: PTH stimulation of OBs in vitro; assay type: cell-based
[7] = test system: osteoblastic UMR106 cells; test: In vitro PTH stimulation of osteoblastic UMR106 cells; assay type: cell-based
Procedure: as §4

[8] = test system: vessels larger than 20 um in diameter; test: Vascular micro-CT of vessels larger than 20 um in diameter; assay type: in vivo, mice; conditions: vascular uCT, TID PTH
Text: FIGS. 3A-3H are graphs (FIGS. 3A-3G) and pictures (FIG. 3H) showing PTH increases bone marrow microvascularity. FIG. 3A is a graph showing histomorphometric analysis of bone marrow microvascular structures per hindlimb section (femur and tibia). FIG. 3B is a graph showing histomorphometric analysis of bone marrow vascular area, measured within a region of interest in the tibial metaphysis. FIG. 3C is a graph showing frequency of CD31+ Sca1+ bone marrow endothelial cells following TID PTH treatment. FIG. 3D is a graph showing frequency of CD31+ Sca1+ bone marrow endothelial cells isolated from CollcaPTH1R-expressing mice (TG) or wildtype littermates (WT). […]
as §1, with “9B). To clarify whether intensive PTH treatment was vasodilatory to existing vessels or increasing de novo endothelial structures, BMCs of PTH-treated mice were analyzed phenotypically by flow cytometry (FIG. 9D).” for “9B).”

[9] = test system: BM blood vessels and perivascular stromal cells; test: CD31 and αSMA immunostaining in the BM; assay type: in vivo, mice; conditions: PTH
Procedure: as §3

[10] = test system: trabecular bone; test: Micro-CT analysis of trabecular bone; assay type: in vivo, mice
Procedure: The limbs were scanned on a Viva CT 40 (Scanco Medical, Bruttisellen, Switzerland) using a 55-kVp, 145-uA current and a 300-ms integration time with a resolution of 12.5 μm. Trabecular analysis was conducted on a 1.25-mm region 50 μm above the growth plate in the femur and a 625-μm 50 um below the growth plate in the tibia. Cortical analysis was conducted 4.375 mm above/below the growth plate of the femur/tibia for a distance of 375 μm.
Due to the dramatic induction of osteoblastic VEGF-A observed in the setting of PTH stimulation, the functional relevance of this signal in multiple aspects of BM microenvironmental activation was analyzed.

[11] = test system: HSPCs; test: Competitive transplantation of whole BM into lethally irradiated recipient mice; assay type: in vivo, C57B1/6 mice; conditions: primary recipients of treated donor BM
Procedure: Competitive transplantation of these cells was performed using a 4:1 donor to competitor cell ratio where the competitor was a C57B1/6 wildtype CD45.2-expressing male mouse and the recipient mice (10 mice per experimental group) were also C57B1/6 wildtype CD45.2-expressing male mice (6-8 weeks of age) that had been conditioned with a split dose of 10 Gray total body irradiation. Cell cocktails (containing the 4:1 ratio donor to competitor whole bone marrow cells) were transplanted into recipients by retro-orbital injection. Recipient mice were placed on a diet containing sulfatrim prior to the transplant and for 1 month post transplantation. Peripheral blood samples were collected at 3 weeks post transplant by bleeding from the sub-mandibular venous plexus into EDTA-containing microtainer blood tubes. Blood was then separated in order to isolate an enriched sample of mononuclear cells using PBS and dextran separation. Mononuclear cells were subjected to red blood cell lysis and then prepared for flow cytometry using a panel of antibodies recognizing B, T and myeloid cells as well as CD45.1 and CD45.2. Samples were then run on an LSR-II 12 color flow cytometer and data was analyzed using TreeStar's FlowJo software. Statistics between treatment groups were analyzed by student's T test. […]

[12] = test system: VEGF-A; test: Immunohistochemical staining for VEGF-A in hindlimb BM; assay type: in vivo; conditions: PTH-treated mice vs vehicle, endosteal/bone surfaces
Text: Osteoblasts (OBs) and the bone marrow (BM) vasculature constitute hematopoietic stem and progenitor cell (HSPC) niches. OB-activation by Parathyroid Hormone (PTH) expands HSPCs through the BM microenvironment. Activation of osteoblasts through systemic PTH treatment or expression of a constitutively active PTH1 receptor (PTH1R) increases trabecular bone and expands HSPCs in the bone marrow. To test if the vasculature is modulated by PTH, it was first assessed whether PTH expands BM endothelial structures. In a murine model of HSPC-expanding PTH treatment, PTH increased microvessels and vascular area in hindlimb histology (FIG. 3A, 3B and 3E-3H). […] To determine if PTH expands BM vasculature by increasing proangiogenic signals, VEGF-A was analyzed in PTH-stimulated BM. […] To establish whether PTH directly stimulates osteoblastic Vegfa expression, mouse calvarial MC3T3 cells were treated with PTH at various stages of osteoblastic maturation. […] The magnitude of induction increased throughout osteoblastic differentiation. […] Bevacizumab blunted PTH-mediated expansion of phenotypic BM ECs when bevacizumab and PTH treatment was compared to PTH alone.
To determine whether the PTH-dependent increase in BM microvascularity is due to local induction of proangiogenic signals, immunostaining for candidate angiogenic factors already implicated in marrow endothelial signaling was performed.

[13] = test system: hematopoietic stem and progenitor cells (HSPCs); test: Flow cytometric analysis of bone marrow HSPCs from treated mice; assay type: in vivo, C57B1/6 mice; conditions: for PTH-induced expansion of phenotypic and functional BM HSPCs: αVEGF in combination with PTH
Procedure: as §2, with “test. […]” for “test.”

[14] = test system: CD105+ mesenchymal cells; test: Flow cytometry of CD105+/Endoglin+ CD45− bone marrow mesenchymal cells; assay type: in vivo, C57B1/6 mice; conditions: bevacizumab with PTH(1-34) or vehicle, 10 days
Procedure: When administered to a live animal, pimonidazole-HCl precipitates in cells containing<14 μM oxygen or pO2<10 mm Hg and can be detected immunohistochemically. […] FIG. 7A is a schematic of VEGF-blocking experiment. […] FIG. 7B is a graph showing frequency of CD31+ Sca1+ bone marrow endothelial cells isolated from C57B1/6 mice treated as indicated. FIG. 7C is a graph showing frequency of
CD105+/Endoglin+ CD45− non-hematopoietic bone marrow mesenchymal cells isolated from C57B1/6 mice treated as indicated. *P<0.05, **P<0.01

[15] = test system: LSKs; test: Growth and survival of LSKs cultured in cytokine-supplemented media; assay type: cell-based, mice; conditions: increasing concentrations of αVEGF
[16] = αVEGF during TID PTH, effect on the effects of PTH
[17] = αVEGF, baseline or PTH-enhanced

## Parathyroid hormone (1-34) [PTH]
[1]
  BM microvessels / vascular structures per hindlimb section (femur and tibia): increased
  vascular area (tibial metaphysis): increased
[2]
  secreted VEGF-A protein: increased; also recorded: robust
[2]; throughout osteoblastic differentiation
  Vegfa expression: strongly induced; also recorded: induced
[3]; PTH treatment vs vehicle
  CD31+ Sca1+ BM endothelial cells: increased; also recorded: expanded
[4]; TID PTH
  endosteal-associated FGF2 in hindlimb BM: increased
[4]; cells isolated from TID PTH mice
  FGF2 expression levels within osteolineage cells: increases
[4]; cells isolated from mice treated with PTH
  Vegfa expression in osteolineage bone-associated cells: increases
[5]; PTH treatment
  soluble VEGF-A protein secreted into the culture media: a significant effect of PTH treatment was not detected
[5]; as early as four hours post PTH treatment of maturing osteoblastic cells
  Vegfa mRNA levels: increased
[6]
  FGF2 in OBs in vitro: simultaneously increased
  expression of VEGF-A in OBs in vitro: increased
[7]; by six hours post PTH-stimulation
  VEGF-A protein secretion: increase
[7]; two hours post PTH stimulation, n=3, p=0.0055
  Vegfa expression: 8.500±1.320 fold change above baseline
[8]
  vessel frequency, density or volume: no increase
[9]
  perivascular α smooth muscle actin (αSMA+): increase
  small BM blood vessels (CD31 immunostaining) associated with trabecular and cortical bone: expansion
[10]; systemic PTH treatment
  trabecular bone: increases
[11]
  multilineage hematopoietic reconstitution: transiently increased
[12]
  VEGF-A protein staining in BM: increased along bone surfaces; also recorded: strongly increased; also recorded: global increase
[13]; systemic PTH treatment
  HSPCs in the bone marrow: expands

## bevacizumab: anti-VEGF-A monoclonal antibody bevacizumab (referred to as αVEGF); humanized monoclonal antibody
[3]; listed as Bevacizumab
  PTH-mediated expansion of BM endothelial cells: blunted
[3]; listed as anti-VEGF therapy
  PTH-mediated expansion of BM endothelial cells: blocks
[3]; listed as αVEGF
  PTH-mediated expansion of BM endothelial cells: significantly decreased
[10]; [16]
  connectivity density of the trabecular bone: augment
  number of bony trabeculae: augment
[10]; αVEGF in combination with PTH
  bone anabolic action of PTH: without blocking
[10]; [17]
  trabecular bone volume: did not significantly alter
  trabecular spacing: did not significantly alter
[14]
  CD105+ mesenchymal cells: does not reduce
[15]
  growth and survival of LSKs: not significantly affected
[13]; VEGF inhibition with PTH
  PTH-mediated expansion of HSCs (Flt3−, CD48−, CD150+ LSKs): did not diminish
[13]; anti-VEGF therapy with or without PTH
  HSPCs: expands
[13]; bevacizumab and PTH vs PTH alone
  PTH-induced expansion of multipotent progenitor/short term repopulating HSPCs (MPP/ST-HSPCs): augmented
[13]
  PTH-induced expansion of phenotypic and functional BM HSPCs: further increased
[13]; listed as anti-VEGF-A treatment
  PTH-induced expansion of phenotypic and functional BM HSPCs: augments
[13]; αVEGF in the setting of PTH
  Flt3+, CD48−, CD150− LSKs: trend towards an increase
  hematopoietic lineage−, Sca1+, c-kit+ cells (LSKs): trend towards an increase
[13]; αVEGF treatment alone
  Flt3+, CD48−, CD150− LSKs: expanded
  hematopoietic lineage−, Sca1+, c-kit+ cells (LSKs): expanded
